These results are taken from US7268149B2 (Wyeth, priority 2002, dated 2007).

For assay [1], the system named is rat uterine decidualization. The experiment in a line: Rat decidualization assay. Format: in vivo. The conditions noted are these: for EC50 for uterine wet weight (decidual response), individual studies: ovariectomized female Sprague-Dawley rats, once daily for seven days. Here is the method: b. Animals (RACUC Protocol #5002)
The animals are treated once daily for seven days.
Uteri are removed and trimmed of fat.
Body weight: Mean total animal body weight (default-kg)
Decidual response: [(D−C)/C]×100%

The subject of another assay is acne vulgaris. The experiment in a line: Treatment of acne vulgaris in a human patient. It is filed as in vivo. The conditions noted are these: oral tablet about 20 mg daily. The protocol:
A human patient having acne vulgaris is treated according to the present invention. Specifically, 5-(4,4-dimethyl-2-thioxo-1,4-dihydro-2H-3,1-benzoxazin-6-yl)-1-methyl-1H-pyrrole-2-carbonitrile is orally delivered to the patient daily. Delivery is in the form of a tablet formulated to contain about 20 mg of 5-(4,4-dimethyl-2-thioxo-1,4-dihydro-2H-3,1-benzoxazin-6-yl)-1-methyl-1H-pyrrole-2-carbonitrile.

Another assay has as its system eczema. The experiment in a line: Conditioning the skin of a human patient with severe eczema. The conditions noted are these: about 50 mg daily. Format: in vivo. Here is the method:
A human patient having a severe form of eczema is treated according to the present invention. Specifically, about 50 mg of 5-(4,4-dimethyl-2-thioxo-1,4-dihydro-2H-3,1-benzoxazin-6-yl)-1-methyl-1H-pyrrole-2-carbonitrile is delivered to the patient daily.

In a further assay the target is T1, androgen receptor (AR) (Mus musculus, UniProt P19091).
T1 construct: L929 cells which express the AR but not the PR; endogenous in cells; host or cells: L929 cells infected with an adenovirus PRE-tk-luciferase reporter
T1 sequence (P19091 1-899): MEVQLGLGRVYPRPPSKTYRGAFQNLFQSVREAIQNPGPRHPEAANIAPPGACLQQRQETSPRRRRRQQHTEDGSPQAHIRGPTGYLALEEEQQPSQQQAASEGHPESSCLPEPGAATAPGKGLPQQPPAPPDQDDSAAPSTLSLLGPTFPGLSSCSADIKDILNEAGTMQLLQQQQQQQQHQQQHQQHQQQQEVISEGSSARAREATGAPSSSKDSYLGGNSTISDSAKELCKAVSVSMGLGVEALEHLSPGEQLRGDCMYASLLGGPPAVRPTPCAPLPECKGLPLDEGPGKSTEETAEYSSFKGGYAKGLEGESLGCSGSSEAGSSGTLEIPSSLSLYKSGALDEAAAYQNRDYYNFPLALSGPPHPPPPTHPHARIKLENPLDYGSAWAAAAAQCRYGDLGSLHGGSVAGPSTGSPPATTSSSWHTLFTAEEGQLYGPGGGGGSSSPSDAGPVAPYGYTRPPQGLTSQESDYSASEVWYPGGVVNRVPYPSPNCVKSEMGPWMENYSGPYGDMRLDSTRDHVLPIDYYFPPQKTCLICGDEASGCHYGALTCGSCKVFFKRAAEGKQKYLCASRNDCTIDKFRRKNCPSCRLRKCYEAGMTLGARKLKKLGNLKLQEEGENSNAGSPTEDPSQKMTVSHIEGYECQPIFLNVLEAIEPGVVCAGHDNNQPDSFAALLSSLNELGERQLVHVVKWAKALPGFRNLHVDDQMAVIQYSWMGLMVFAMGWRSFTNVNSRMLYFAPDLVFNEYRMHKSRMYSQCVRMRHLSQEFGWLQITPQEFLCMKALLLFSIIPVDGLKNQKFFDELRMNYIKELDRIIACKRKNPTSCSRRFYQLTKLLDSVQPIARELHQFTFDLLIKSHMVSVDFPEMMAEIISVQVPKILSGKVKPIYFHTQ
The experiment in a line: Androgen receptor agonistic/antagonistic activity, PRE-tk-luciferase reporter in L929 cells. Format: cell-based. The protocol: The androgen receptor (AR) agonistic and antagonistic activity of the compositions of the invention in the L929 cells which express the AR but not the PR was evaluated as described in Zhang et al., Steroids, 65(10-11): 637-643 (October-November 2000).
Cells were plated in 96-well plates at 25,000 cells/well in DMEM (BioWhittaker) with 10% (v/v) fetal bovine serum (FBS). The next day, cells were infected with the adenovirus PRE-tk-luciferase reporter construct (2×10^9 pfu/ml particles) and kept in DMEM containing 10% charcoal stripped FBS for an additional 24 hours. […] To test the anti-androgenic activity, cells were co-treated with 3 nM DHT. Luciferase activity was measured 24 hours following the treatment.
(In general: In a reporter assay the amount or activity of a reporter protein is the signal.)

Assay [2] has as its system alkaline phosphatase activity in T47D cells. The experiment in a line: T47D cell alkaline phosphatase assay. It is filed as cell-based. Conditions: Homo sapiens, agonist mode, read-out: EC50 in the T47D alkaline phosphatase assay, test compounds. Here is the method: 4. T47D Cell Alkaline Phosphatase Assay
The purpose of this assay is to identify progestins or antiprogestins by determining a compound's effect on alkaline phosphatase activity in T47D cells.
a. Culture Medium: DMEM:F12 (1:1) (GIBCO, BRL) supplemented with 5% (v/v) charcoal stripped fetal bovine serum (not heat-inactivated), 100 U/ml penicillin, 100 μg/ml streptomycin, and 2 mM GlutaMax (GIBCO, BRL).
b. Alkaline Phosphatase Assay Buffer:
I. 0.1 M Tris-HCl, pH 9.8, containing 0.2% Triton X-100
II. 0.1 M Tris-HCl, pH 9.8 containing 4 mM p-nitrophenyl phosphate (Sigma).
c. Cell Culture and Treatment:
Frozen T47D cells were thawed in a 37° C. water bath and diluted to 280,000 cells/ml in culture medium. To each well in a 96-well plate (Falcon, Becton Dickinson Labware), 180 μl of diluted cell suspension was added. Twenty μl of reference or test compounds diluted in the culture medium was then added to each well. […] The cells were incubated at 37° C. in a 5% CO2/humidified atmosphere for 24 hr.
d. Alkaline Phosphatase Enzyme Assay:
At the end of treatment, the medium was removed from the plate and […] of assay buffer I was added to each well. The plates were shaken in a titer plate shaker for 15 min. Then 150 μl of assay buffer II was added to each well.
e. Analysis of Results: Analysis of Dose-response Data
For reference and test compounds, a dose response curve is generated for dose (X-axis) vs. the rate of enzyme reaction (slope) (Y-axis). Square root-transformed data are used for analysis of variance and nonlinear dose response curve fitting for both agonist and antagonist modes. Huber weighting is used to downweight the effects of outliers. EC50 or IC50 values are calculated from the retransformed values.

The subject of the next assay is T47D cells. The experiment in a line: T47D cell proliferation assay (BrdU incorporation). Format: cell-based. Here is the method: 3. T47D cell Proliferation Assay
The objective of this assay is the determination of progestational and antiprogestational potency by using a cell proliferation assay in T47D cells. A compound's effect on DNA synthesis in T47D cells is measured.
a. Growth Medium: DMEM:F12 (1:1) (GIBCO, BRL) supplemented with 10% (v/v) fetal bovine serum (not heat-inactivated), 100 U/ml penicillin, […], and 2 mM GlutaMax (GIBCO, BRL).
b. Treatment Medium: Minimum Essential Medium (MEM) (#51200-038GIBCO, BRL) phenol red-free supplemented with 0.5% charcoal stripped fetal bovine serum, 100 U/ml penicillin, […] streptomycin, and 2 mM GlutaMax (GIBCO, BRL).
Stock T47 D cells are maintained in growth medium. […]
At the end of BrdU labeling, the medium is removed and BrdU incorporation is measured using a cell proliferation ELISA kit (#RPN 250, Amersham Life Science) according to manufacturer's instructions. […] Then 25 μl of 1 M sulfuric acid is added to each well to stop color reaction and optical density is read in a plate reader at 450 nm within 5 min.
Square root-transformed data are used for analysis of variance and nonlinear dose response curve fitting for both agonist and antagonist modes. […] EC50 or IC50 values are calculated from the retransformed values. […]
In general terms: Dividing cells build labelled thymidine or BrdU into new DNA.

pEC50, pIC50: −log10 of the molar value. Values joined by “and” are separate entries in the source; they are usually repeats but may differ in a detail not shown here. Identical values can stand only once.

On to `C#C[C@]1(O)CC[C@H]2[C@@H]3CCC4=CC(=O)CC[C@@H]4[C@H]3C(=C)C[C@@]21CC` [3-Ketodesogestrel], for which, in assay [1] (average of dose-response curves, ovariectomized rats, s.c.), the “Estimated average EC50 for uterine weight (decidual response)” value is on record as 0.10 mg/kg, s.c. Further, the “EC50 for uterine wet weight (decidual response), individual studies” value in assay [1] (s.c.) is 0.10 mg/kg, s.c. and 0.06 mg/kg, s.c. and 0.11 mg/kg, s.c. Turning to `Cn1c(C#N)ccc1-c1ccc2c(c1)C(C)(C)OC(=S)N2` [5-(4,4-dimethyl-2-thioxo-1,4-dihydro-2H-3,1-benzoxazin-6-yl)-1-methyl-1H-pyrrole-2-carbonitrile], the Acne vulgaris outcome with acne vulgaris (after about 24 weeks) was “improvement in the acne vulgaris is observed”. Moreover, the “Presence of lesions caused by acne vulgaris” value in the assay on acne vulgaris (forty-five to sixty days after the treatment) is given as “a decrease in the presence of lesions caused by acne vulgaris is noticed”. The Eczema outcome in the assay on eczema (after about 12 weeks) is on record as “improvement in the eczema is observed”. For the same compound, in the assay on eczema (thirty days after the treatment), the “Dryness of the skin” value is on record as “a decrease in the dryness affected to the skin is noticed”. In addition, the AR agonistic activity entry at androgen receptor (AR) (at the maximum concentration tested (10 nM)) was “only marginal agonistic activity”. Moreover, at androgen receptor (AR) (nine point dose response, co-treated with 3 nM DHT), the AR antagonistic activity entry is recorded as “significant antagonistic activity”. Consider `Cn1c(C#N)ccc1-c1ccc2c(c1)C1(CCC1)OC(=S)N2` [Example 1, 1-Methyl-5-(2-thioxo-1,2-dihydrospiro[3,1-benzoxazine-4,1′-cyclobutan]-6-yl)-1H-pyrrole-2-carbonitrile], for which, in assay [2], the pEC50 was 9.30.

Turning to `CCC1(CC)OC(=S)Nc2ccc(-c3ccc(C#N)n3C)cc21` [Example 2, 5-(4,4-Diethyl-2-thioxo-1,4-dihydro-2H-3,1-benzoxazin-6-yl)-1-methyl-1H-pyrrole-2-carbonitrile], in assay [2], the pEC50 is 10.00.

Consider `CCC1(C)OC(=S)Nc2ccc(-c3ccc(C#N)n3C)cc21` (centres unmarked) [Example 3, 5-(4-ethyl-4-methyl-2-thioxo-1,4-dihydro-2H-3,1-benzoxazin-6-yl)-1-methyl-1H-pyrrole-2-carbonitrile], for which the pEC50 in assay [2] is 10.00.

With `Cn1c(C#N)ccc1-c1ccc2c(c1)C1(CCCCC1)OC(=S)N2` [Example 4, 1-Methyl-5-(2-thioxo-1,2-dihydrospiro[3,1-benzoxazine-4,1′-cyclohexan]-6-yl)-1H-pyrrole-2-carbonitrile], the pEC50 in assay [2] is 9.52.

For `Cn1c(C#N)ccc1-c1ccc2c(c1)C1(CCCC1)OC(=S)N2` [Example 5, 1-Methyl-5-(2-thioxo-1,2-dihydrospiro [3,1-benzoxazine-4,1′-cyclopentan]-6-yl)-1H-pyrrole-2-carbonitrile], in assay [2], the pEC50 is 9.30. For `Cn1c(C#N)ccc1-c1ccc2c(c1)C(C(F)(F)F)(C(F)(F)F)OC(=S)N2` [Example 6, 1-Methyl-5-[2-thioxo-4,4-bis(trifluoromethyl)-1,4-dihydro-2H-3,1-benzoxazin-6-yl]-1H-pyrrole-2-carbonitrile], in assay [2], the pEC50 was > 8.00.

On to `C#C[C@]1(O)CC[C@H]2[C@@H]3CCC4=CC(=O)CC[C@@H]4[C@H]3CC[C@@]21CC` [Levonorgestrel], for which the “EC50 for uterine wet weight (decidual response), individual studies” value in assay [1] (s.c.) was 0.08 mg/kg, s.c. and 0.12 mg/kg, s.c. and 0.09 mg/kg, s.c. (2×). Same read-out and setting: the value for `CC(=O)O[C@]1(C(C)=O)CC[C@H]2[C@@H]3C[C@H](C)C4=CC(=O)CC[C@]4(C)[C@H]3CC[C@@]21C` [MPA, medroxyprogesterone acetate] was 0.42 mg/kg, s.c. and 0.39 mg/kg, s.c. (2×); that for `CC(=O)[C@H]1CC[C@H]2[C@@H]3CCC4=CC(=O)CC[C@]4(C)[C@H]3CC[C@]12C` [Progesterone] was 5.50 mg/kg, s.c. Turning to `CC#C[C@]1(O)CC[C@H]2[C@@H]3CCC4=CC(=O)CCC4=C3[C@@H](c3ccc(N(C)C)cc3)C[C@@]21C` [RU486], the “IC50 for uterine weight (decrease in EC50 progesterone induced decidual response)” value in assay [1] (ovariectomized rats, p.o., with EC50 dose of progesterone) is 0.21 mg/kg, p.o. and 0.14 mg/kg, p.o. Besides, the pIC50 with T47D cells (read-out: IC50 (half-maximal decrease in trimegestone induced BrdU incorporation), antagonist mode, in the presence of 0.03 nM trimegestone) is 10.80 and 10.74. Take `C[C@H](O)C(=O)[C@@]1(C)CC[C@H]2[C@@H]3CCC4=CC(=O)CCC4=C3CC[C@@]21C` [Trimegestone]: in the assay with T47D cells (agonist mode, individual studies, read-out: EC50 (half-maximal increase in BrdU incorporation)), the pEC50 is 10.77 and 10.85 and 10.72.
